Structures can show the parent of a compound that is named as a salt.
Target: T1, DPP-IV (Homo sapiens, UniProt P27487)
T1 construct: Soluble human DPP-IV lacking the transmembrane anchor (Gly31-Pro766); Pre-Pro-alpha-mating factor leader (secretion signal) (N, cleaved yes); made in house
Assay: Continuous fluorimetric assay of DPP-IV peptidase activity (Gly-Pro-AMC cleavage)
Assay type: biochemical
Details: 50 pM DPP-IV, 16 μM Gly-Pro-AMC, pH 7.4, 25° C., 1% DMSO; values grouped in 3 classes; read-out: IC50 for inhibition of DPP-IV peptidase activity
Procedure: Inhibition of DPP-IV peptidase activity was monitored with a continuous fluorimetric assay. This assay is based on the cleavage of the substrate Gly-Pro-AMC (Bachem) by DPP-IV, releasing free AMC. The assay is carried out in 96-well microtiterplates. In a total volume of 100 μL, compounds are preincubated with 50 pM DPP-IV employing a buffer containing 10 mM Hepes, 150 mM NaCl, 0.005% Tween 20 (pH 7.4). The reaction is started by the addition of 16 μM substrate and the fluorescence of liberated AMC is detected for 10 minutes at 25° C. with a fluorescence reader (BMG-Fluostar; BMG-Technologies) using an excitation wavelength of 370 nm and an emission wavelength of 450 nm. The final concentration of DMSO is 1%. The inhibitory potential of the compounds were determined.
Soluble human DPP-IV lacking the transmembrane anchor (Gly31-Pro766) was expressed in a recombinant YEAST-strain as Pre-Pro-alpha-mating fusion. The secreted product (rhuDPP-IV-Gly31-Pro766) was purified from fermentation broth (>90% purity).
In the table are listed the IC50 values for inhibition of DPP-IV peptidase activity determined in assays as described above.

T1 sequence (P27487 31-766): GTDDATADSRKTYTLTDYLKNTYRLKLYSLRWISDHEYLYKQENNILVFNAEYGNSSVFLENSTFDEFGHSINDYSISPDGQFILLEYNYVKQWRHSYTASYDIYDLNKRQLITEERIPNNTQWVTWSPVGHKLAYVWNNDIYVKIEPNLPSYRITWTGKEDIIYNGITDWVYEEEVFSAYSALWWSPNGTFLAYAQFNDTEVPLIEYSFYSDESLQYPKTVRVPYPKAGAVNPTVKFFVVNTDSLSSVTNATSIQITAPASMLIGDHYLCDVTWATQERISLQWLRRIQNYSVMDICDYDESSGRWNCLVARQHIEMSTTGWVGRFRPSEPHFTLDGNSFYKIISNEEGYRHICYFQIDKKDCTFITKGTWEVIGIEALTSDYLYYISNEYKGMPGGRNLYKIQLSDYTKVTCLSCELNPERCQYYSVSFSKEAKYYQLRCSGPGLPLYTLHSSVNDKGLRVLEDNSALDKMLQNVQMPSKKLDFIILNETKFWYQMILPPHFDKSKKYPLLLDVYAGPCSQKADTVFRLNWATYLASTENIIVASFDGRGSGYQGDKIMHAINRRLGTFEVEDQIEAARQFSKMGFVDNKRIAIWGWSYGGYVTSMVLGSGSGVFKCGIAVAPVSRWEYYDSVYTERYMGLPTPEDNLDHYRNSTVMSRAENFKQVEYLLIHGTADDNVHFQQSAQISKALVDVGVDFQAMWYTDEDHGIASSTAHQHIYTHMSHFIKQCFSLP

| Compound | IC50 |
| --- | --- |
| N[C@@H](CC(=O)N1c2ccccc2CC1COCc1ccccc1)Cc1ccccc1F (mixture of isomers) [Example 13, (3R)-3-Amino-1-benzyloxymethyl-2,3-dihydro-indo-1-yl)-4-(2-fluorophenyl)-butan-1-one trifluoroacetate salt] | 1000 to 2000 nM |
| N[C@@H](CC(=O)N1Cc2ccccc2C[C@H]1CNC(=O)CO)Cc1ccccc1F [Example 3, N-{2-[(3R)-3-Amino-4-(2-fluoro-phenyl)-butyryl-1,2,3,4-tetrahydroisoquinolin-(3S)-3-ylmethyl}-2-hydroxy-acetamide, trifluoroacetate salt] | 101 to 1000 nM |
| N[C@@H](CC(=O)N1Cc2ccccc2C[C@H]1CNC(=O)C1(O)CC1)Cc1ccccc1F [Example 2, 1-Hydroxy-cyclopropanecarboxylic acid {2-[(3R)-3-amino-4-(2-fluoro-phenyl)-butyryl]-1,2,3,4-tetrahydro-isoquinolin-(3S)-3-ylmethyl}-amide, trifluoroacetate salt] | 101 to 1000 nM |
| N[C@@H](CC(=O)N1Cc2ccccc2C[C@H]1CNC(=O)c1ccccc1)Cc1ccccc1F [Example 4, N-{2-[(3R)-3-Amino-4-(2-fluoro-phenyl)-butyryl}-1,2,3,4-tetrahydro-isoquinolin-(3S)-3-ylmethyl}-benzamide, trifluoroacetate salt] | ≤ 100 nM |
| N[C@@H](CC(=O)N1Cc2ccccc2CC1COCc1ccccc1)Cc1ccccc1F (stereo partly drawn) [Example 14, (3R)-3-Amino-1-benzyloxymethyl-3,4-dihydro-1H-isoquinolin-2-yl)-4-(2-fluorophenyl)-butan-1-one, trifluoroacetate salt] | ≤ 100 nM |
| CS(=O)(=O)NC[C@@H]1Cc2ccccc2CN1C(=O)C[C@H](N)Cc1ccccc1F [Example 8, N-{2-[(3R)-3-Amino-4-[2-fluoro-phenyl)-butyryl]-1,2,3,4-tetrahydro-isoquinolin-(3S)-3-ylmethyl}-methanesulfonamide, trifluoroacetate salt] | ≤ 100 nM |
| N[C@@H](CC(=O)N1Cc2ccccc2C[C@H]1CNC(=O)C1CC1)Cc1ccccc1F [Example 1, Cyclopropanecarboxylic acid {2-[(3R)-3-amino-4-(2-fluoro-phenyl)-butyryl]-1,2,3,4-tetrahydro-isoquinolin-(3S)-3-ylmethyl]-amide, trifluoroacetate salt] | 101 to 1000 nM |
| CN(C)C[C@@H]1Cc2ccccc2CN1C(=O)C[C@H](N)Cc1ccccc1F [Example 7, (3R)-3-Amino-1-(3S)-3-(3-dimethylaminomethyl-3,4-dihydro-1H-isoquinolin-2-yl)-4-(2-fluorophenyl)-butan-1-one, trifluoroacetate salt] | 1000 to 2000 nM |
| Nc1nc(C(=O)NC[C@@H]2Cc3ccccc3CN2C(=O)C[C@H](N)Cc2ccccc2F)n[nH]1 [Example 6, 5-Amino-1H-[1,2,4]triazole-3-carboxylic acid-{2-[(3R)-3-amino-4-(2-fluoro-phenyl)-butyryl]-1,2,3,4-tetrahydro-isoquinolin-(3S)-3-ylmethyl-amide, trifluoroacetate salt] | ≤ 100 nM |

More lines, now with the values ahead:

| IC50 | Compound |
| --- | --- |
| ≤ 100 nM | N[C@@H](CC(=O)N1Cc2ccccc2C[C@H]1CNS(=O)(=O)C1CC1)Cc1ccccc1F [Example 9, Cyclopropanesulfonic acid {2-[(3R)-3-amino-4-(2-fluoro-phenyl)-butyryl]-1,2,3,4-tetrahydro-isoquinolin-(3S)-3-ylmethyl-amide, trifluoroacetate salt] |
| ≤ 100 nM | NC(CC(=O)N1Cc2ccccc2C[C@H]1CNS(=O)(=O)C1CC1)Cc1cc(F)ccc1F (mixture of isomers) [Example 11, Cyclopropanesulfonic acid {2-[(3-amino-4-(2,5-difluoro-phenyl)-butyryl]-1,2,3,4-tetrahydro-isoquinolin-(3S)-3-ylmethyl}-amide, trifluoroacetate salt] |
| ≤ 100 nM | Cc1cc(C(=O)NC[C@@H]2Cc3ccccc3CN2C(=O)C[C@H](N)Cc2ccccc2F)no1 [Example 5, 5-Methyl-isoxazole-3-carboxylic acid-{2-[(3R)-3-amino-4-(2-fluoro-phenyl)-butyryl]-1,2,3,4-tetrahydro-isoquinolin-(3S)-3-ylmethyl}-amide, trifluoroacetate salt] |
| ≤ 100 nM | N[C@@H](CC(=O)N1Cc2ccccc2C[C@H]1COc1cccc(F)c1)Cc1ccccc1F [Example 12, trifluoroacetate salt] |
| ≤ 100 nM | N[C@@H](CC(=O)N1Cc2ccccc2C[C@H]1CNS(=O)(=O)C1CC1)Cc1cccc(Cl)c1 [Example 10, Cyclopropanesulfonic acid {2-[(3R)-3-amino-4-(3-chloro-phenyl)-butyryl]-1,2,3,4-tetrahydro-isoquinolin-(3S)-3-ylmethyl]-amide, trifluoroacetate salt] |

— patent US20070265301A1, “Dpp-IV Inhibitors” (priority 2004, published 2007)
